Series [1] is described as follows: in vivo. To be noted: Sprague-Dawley, rat, po, 10 mg/kg.
The nature of series [2]: in vivo. To be noted: Sprague-Dawley, rat, iv, 1 mg/kg.
Series [3] in a line: in vivo. To be noted: Sprague-Dawley, rat, po, 10 mg/kg. The source holds these as a separate data set.
The nature of series [4]: in vivo. As to conditions: Sprague-Dawley, rat, iv, 1 mg/kg. This is another data set of the same source.
Series [5] can be described thus: in vivo. To be noted: Sprague-Dawley, rat, iv, 1 mg/kg. This is another data set of the same source.
A short description of series [6]: in vivo. To be noted: Sprague-Dawley, rat, iv, 1 mg/kg. The source holds these as a separate data set.

One compound from ChEMBL document CHEMBL5042540, “Discovery of Pteridine-7(8H)-one Derivatives as Potent and Selective Inhibitors of Bruton's Tyrosine Kinase (BTK)” (J Med Chem, 2022) can be followed below.

In general, bioavailability refers to dose-corrected exposure relative to a reference, in per cent. A low value points to poor availability. One may read the half-life as the time needed for the level to fall by half in the phase considered. The AUC(0-t) is exposure summed from dosing to a finite time, without extrapolation to infinity. In general, clearance refers to the rate of elimination divided by the concentration. Higher therefore signals a high capacity for elimination. Broadly, the Vd is the apparent volume that relates the amount in the body to the concentration in plasma or blood. In series [1], `C=CC(=O)Nc1cccc(-n2c(=O)c(C3CCCCC3)nc3cnc(Nc4cccc(OCCOC)c4)nc32)c1` yielded a bioavailability of 2.31%. This compound also had a half-life in series [2] of 26.4 min. For the same compound, the AUC(0-t) in series [3] is 0.0669 µg·h/mL; in series [5], 0.29 µg·h/mL. Moreover, the clearance in series [4] was 3.49 L/h/kg. In series [6], the Vd was determined as 1.16 L/kg.
